Active and inactive are the calls of the source. The rule behind the calls is not given here.
Columns and labels:
Cytotoxicity = assay: NFkB reporter suppression in cystic fibrosis bronchial cells – cell-based, uHTS hits, panel, cytotoxicity readout, dose response (AID 624344); conditions: CF bronchial epithelial cells, mean of runs
[1] = as above; conditions: CF bronchial epithelial cells, PAF-induced NFkB reporter inhibition; with PAF, mean of runs

Row | SMILES | IC50 (Cytotoxicity) | IC50 [1]
1 | CCOC(=O)Oc1c(OC)cc(C(=O)O[C@@H]2C[C@@H]3CN4CCc5c([nH]c6cc(OC)ccc56)[C@H]4C[C@@H]3[C@H](C(=O)OC)[C@H]2OC)cc1OC | 58.8 µM (inactive) | 4.91 µM
2 | C=CCN(CC=C)c1ncnc2[nH]ncc12 | > 79 µM (inactive) | 1.24 µM
3 | FC(F)Sc1ccc(NC(=S)NCC2CCCCC2)cc1 | 7.18 µM | 5.53 µM
4 | CCC1=C(CC2NCCc3ccccc32)CC2c3cc(OC)c(OC)cc3CCN2C1 (stereo unspecified) | 30 µM | 4.34 µM
5 | Cc1cc(C)nc(Sc2ncnc(N)c2[N+](=O)[O-])n1 | 13.5 µM | 5.09 µM
6 | COc1ccccc1NS(=O)(=O)c1cccc(-n2c(O)c(C=Nc3ccccc3C(=O)O)c3ccccc3c2=O)c1 | 37.1 µM | 5.54 µM
7 | CCN1CCN(Cc2ccc(NC(=O)c3ccc(C)c(NC(=O)N4CCNC4=O)c3)cc2C(F)(F)F)CC1 | 29.2 µM | 1.62 µM
8 | Cc1ccc(CSc2nccc(-c3c(C)nc4ccccn34)n2)cc1 | 26.4 µM | 3.18 µM
9 | CN1CCN(S(=O)(=O)c2ccc(Sc3nnnn3-c3ccccc3)c([N+](=O)[O-])c2)CC1 | 3.12 µM | 2.06 µM
10 | CC(=C/c1ccccc1)/C=N/n1c(-c2ccncc2)n[nH]c1=S | 65.2 µM (inactive) | 0.43 µM
11 | CC1=C(/C=C/C(C)=C/C=C/C(C)=C\C(=O)O)C(C)(C)CCC1 | > 79 µM (inactive) | 0.64 µM
12 | COc1ccc(NC(=O)Nc2nnc(-c3ccncc3)s2)cc1 | 64.7 µM (inactive) | 5.6 µM
13 | O=C(Nc1ccc(Br)c2ccccc12)c1ccc2ccccc2c1O | 2.38 µM | 1.93 µM
14 | COc1ccc(-c2oc3ccc(-c4ccc5c(c4)OCO5)cc3c2C#CC2(O)CCCCC2)cc1 | 41.3 µM | 2.67 µM
15 | CN(C)CCCN(C(=O)CCS(=O)(=O)c1ccccc1)c1nc2cc3c(cc2s1)OCO3 | 7.47 µM | 1.7 µM
16 | COc1ccc2[nH]c(=O)c(CN(Cc3cccnc3)S(=O)(=O)c3ccccc3F)cc2c1 | 3.68 µM | 2.1 µM
17 | Clc1ccc(Cn2ncc3c(N4CCN(c5ccccc5)CC4)ncnc32)cc1 | 5.17 µM | 4.7 µM

Row | SMILES | IC50 (Cytotoxicity) | IC50 [1]
18 | CCOC(=O)c1[nH]c(C)c(C(=O)N2CCc3ccccc32)c1C | 44.5 µM | > 79 µM (inactive)
19 | Cc1ccc(C(=O)Nc2cccc(C(F)(F)F)c2)cc1NC(=O)c1cnnc2ccccc12 | 22.6 µM | 6.43 µM
20 | COCCCN=C1NN=C(c2cc(C)n(Cc3ccccc3Cl)c2C)CS1 | > 79 µM (inactive) | inactive
21 | O=C1NC(c2cccc3ccccc23)Nc2ccc(Cl)cc21 (stereo unspecified) | > 79 µM (inactive) | 8.66 µM
22 | CN1CCC(OC(=O)c2cc3cc(Cl)cc(Cl)c3oc2=O)CC1 | 44.5 µM | 1.64 µM
23 | FC(F)(F)c1nnc2c(Sc3ccccc3)nc3ccccc3n12 | 3.54 µM | 2.76 µM
24 | CC(C)CN=C(NS(=O)(=O)c1ccccc1)C(Cl)(Cl)Cl | 44.5 µM | 2.93 µM
25 | Cc1ccc(-c2n[nH]c(=S)n2/N=C/c2ccncc2)cc1 | 53.1 µM (inactive) | 2.63 µM
26 | COc1ccc2c(c1)c(C(C)=O)c(C)n2-c1ccc(C(C)=O)cc1 | 44.5 µM | 2.83 µM
27 | CC(=O)Nc1ccc(-c2ccnc3c2CC(C(=O)NCc2ccco2)O3)cc1 (stereo unspecified) | > 79 µM (inactive) | inactive
28 | Cc1ccc(CNc2ncnc3ccc(-c4ccc(CO)o4)cc23)o1 | 3.77 µM | 0.898 µM
29 | Cn1c(Oc2ccc(Cl)cc2)c(C=O)c2ccccc21 | 13.5 µM | 3.96 µM
30 | Cc1ccc(S(=O)(=O)Nc2nc3ccccc3nc2Nc2cccc(S(=O)(=O)N3CCCC3)c2)cc1 | 41.3 µM | 3.57 µM
31 | Cc1ccc(CNc2ncnc3ccc(-c4ccoc4C)cc23)o1 | 14.8 µM | 0.381 µM
32 | CCSc1nsc(NC(=O)Nc2cccc(OC)c2)n1 | 23.3 µM | 4.22 µM
33 | CC1(Cc2ccc(Cl)cc2)C(=O)Nc2ccc(-c3cccnc3)cc21 (stereo unspecified) | 26.6 µM | 1.28 µM

From PubChem BioAssay AID624344 (Sanford-Burnham Center for Chemical Genomics, 2012)
